Reference: patent US7449495B2, “Retinoid derivatives with antiangiogenic, antitumoral and proapoptotic activities” (Sigma-Tau Industrie Farmaceutiche Riunite S.p.A., priority 2001, dated 2008)

Columns and labels:
[1] = test system: Human Promyelocytic Leukaemia NB4 Cells; assay: Cyto-fluorometric cell cycle analysis, NB4; format: cell-based; conditions: 3 days; for G0/G1 / G2 + M / S: percentage of cell cycle phase
Procedure: To evaluate the effect of the compound according to the invention, on various phases of the cell cycle, cyto-fluorometric cell cycle analyses were performed.
HL60 or NB4 cells were seeded onto plates at a density of 150.000 cells/ml in RPMI 1640 medium containing 10% FCS, the test compound (ST 1926) was added, solubilised in 0.1% DMSO at concentrations of between 0.01 and 0.1 μM, in the presence or absence of sub-optimal doses of ATRA (5-10 nM for NB4 and 0.5 μM for HL60) in the dark and placed in an incubator for 3 days without changing the culture medium.
On the third day of treatment 500.000 cells were sampled, centrifuged at 180×g for 5 minutes, washed twice in calcium and magnesium free PBS. The cells (1×10^6/ml of fixative) were fixed for at least 1 hour in a fixation mixture comprised of acetone/methanol 1:4 v/v maintained at −20° C. and 50% of calcium and magnesium free PBS; then the cells were centrifuged, washed in calcium and magnesium free PBS, and again centrifuged and washed. The cellular precipitate was incubated for 30 minutes in the dark at room temperature with 200 μl of […] (100 μg/ml) and 200 μl of RNAse (150 KU/mg).
The samples with filtered through nylon filters (60-80 μm diameter) and analysed by cyto-fluorimeter FACScan (Becton Dickinson), acquiring 20000 events/sample, at an excitation wavelength of 488 nm and emission wavelength of 620 nm. The analysis of the percentages of the cell cycle phases was performed using a dedicated software package, Modfit v. 2.0 (Becton Dickinson).

Human melanoma MeWo = assay: Cytotoxicity test (sulphorodamine B), MeWo; format: cell-based; conditions: 24 h incubation, survival 48 h after removal
Text: (§1) Different cell lines deriving from solid tumors were also used. • 1. Human prostate carcinoma PC3 and DU145. These cell lines were maintained in RPMI 1640 medium containing 10% FCS, 1% sodium pyruvate and 1% glutamine; • 2. Human colon adenocarcinoma LoVo. This cell line was maintained in HAM's F-12 medium, containing 10% FCS and 1% glutamine. • 3. Human ovarian carcinoma such as A2780 and A2780/Dx, sensitive and resistant to drugs, respectively (doxorubicin, taxol, etoposide, vincristine); IGROV-1 and IGROV-1/Pt, sensitive and resistant to platinum-based chemotherapy, respectively, were maintained in RPMI 1640 medium containing 10% FCS, 1% sodium pyruvate and 1% glutamine; • 4. Human melanoma MeWo and MeS 2.21, glioblastoma GBM, no small cell lung carcinomas A431, NCI—H460, osteosarcomas SAOS and U2OS were maintained in RPMI 1640 medium containing 10% FCS, 1% sodium pyruvate and 1% glutamine.
(§2) The cytotoxicity tests were carried out using NB4 or HL-60 cells in suspension (10000/well). The cells were seeded in a volume of 250 μl in 96 well plates and incubated for 24 hours at 37° C. […] The optical density was measured using a Multiskan spectrophotometer at 540 nm. […]
(§3) Cell survival was determined by incubation with ST1926 for 24 hours, 48 hours after the removal of the compound. […]

[2] = test system: Human colon adenocarcinoma LoVo; assay: Cytotoxicity test (sulphorodamine B), LoVo; format: cell-based; conditions: 24 h incubation, survival 48 h after removal, read-out: IC50
Text: as §1, §2, §3

[3] = test system: F9 embryonic teratocarcinoma cells; conditions: cited from earlier work

Compound: O=C(O)/C=C/c1ccc(-c2ccc(O)c(C34CC5CC(CC(C5)C3)C4)c2)cc1 [ST1926, E-4-(3-(1-adamantyl)-4-hydroxyphenyl)cinnamic acid]
- APOPTOSIS ([1]; NB4, 0.01 μM): 19.9
- G0/G1 ([1]; NB4, 0.01 μM): 48.4
- G2 + M ([1]; NB4, 0.01 μM): 12.8
- S ([1]; NB4, 0.01 μM): 38.8
- APOPTOSIS ([1]; NB4, 0.02 μM): 28.4
- G0/G1 ([1]; NB4, 0.02 μM): 48.2
- G2 + M ([1]; NB4, 0.02 μM): 12.4
- S ([1]; NB4, 0.02 μM): 39.4
- APOPTOSIS ([1]; NB4, 0.04 μM): 33.9
- G0/G1 ([1]; NB4, 0.04 μM): 51.3
- G2 + M ([1]; NB4, 0.04 μM): 13.0
- S ([1]; NB4, 0.04 μM): 35.7
- APOPTOSIS ([1]; NB4, 0.08 μM): 45.0
- G0/G1 ([1]; NB4, 0.08 μM): 41.4
- G2 + M ([1]; NB4, 0.08 μM): 5.0
- S ([1]; NB4, 0.08 μM): 53.6
- APOPTOSIS ([1]; NB4, 0.1 μM): 53.6
- G0/G1 ([1]; NB4, 0.1 μM): 50.6
- G2 + M ([1]; NB4, 0.1 μM): 3.3
- S ([1]; NB4, 0.1 μM): 46.1
- effect on the cell cycle of NB4 (in words) ([1]; NB4, 0.08 and 0.1 μM): induces growth arrest in the duplication S phase of the cycle and apoptosis
- IC50 (Human melanoma MeWo): 230 nM
- IC50 [2]: 240 nM
- activity in the F9 assay compared with compound 1 (in words) [3]: lower activities
